The results in this text go back to BindingDB's records for doi:10.1002/1520-636X(2001)13:3 (University of Maryland, 2001).

The target of assay [1] is Kappa-type opioid receptor (Rattus norvegicus, UniProt P34975).
Assay [2] deals with Mu-type opioid receptor (Rattus norvegicus, UniProt P33535).
In assay [3] the target is Delta-type opioid receptor (Mus musculus, UniProt P32300).
Sequence of Delta-type opioid receptor (P32300 whole entry): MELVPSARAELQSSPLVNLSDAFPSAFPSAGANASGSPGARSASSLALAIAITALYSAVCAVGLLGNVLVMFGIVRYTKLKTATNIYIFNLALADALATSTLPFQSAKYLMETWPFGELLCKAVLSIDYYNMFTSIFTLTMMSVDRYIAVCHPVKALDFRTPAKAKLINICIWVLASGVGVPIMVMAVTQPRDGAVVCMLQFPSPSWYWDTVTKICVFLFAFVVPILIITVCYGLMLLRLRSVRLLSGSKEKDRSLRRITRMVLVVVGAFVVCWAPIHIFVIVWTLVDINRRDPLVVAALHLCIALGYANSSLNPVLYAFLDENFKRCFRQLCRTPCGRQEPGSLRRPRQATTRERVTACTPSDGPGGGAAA

Sequence of Kappa-type opioid receptor (P34975 whole entry): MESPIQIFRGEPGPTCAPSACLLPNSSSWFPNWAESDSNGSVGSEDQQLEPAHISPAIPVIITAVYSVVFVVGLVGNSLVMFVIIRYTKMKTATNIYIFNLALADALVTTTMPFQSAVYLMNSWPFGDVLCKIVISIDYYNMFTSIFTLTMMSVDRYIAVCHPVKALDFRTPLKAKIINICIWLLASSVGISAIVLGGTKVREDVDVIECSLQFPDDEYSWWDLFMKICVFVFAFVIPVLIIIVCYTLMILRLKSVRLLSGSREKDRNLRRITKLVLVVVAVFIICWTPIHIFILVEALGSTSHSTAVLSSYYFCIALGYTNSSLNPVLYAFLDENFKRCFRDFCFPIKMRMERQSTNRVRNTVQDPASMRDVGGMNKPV
Sequence of Mu-type opioid receptor (P33535 whole entry): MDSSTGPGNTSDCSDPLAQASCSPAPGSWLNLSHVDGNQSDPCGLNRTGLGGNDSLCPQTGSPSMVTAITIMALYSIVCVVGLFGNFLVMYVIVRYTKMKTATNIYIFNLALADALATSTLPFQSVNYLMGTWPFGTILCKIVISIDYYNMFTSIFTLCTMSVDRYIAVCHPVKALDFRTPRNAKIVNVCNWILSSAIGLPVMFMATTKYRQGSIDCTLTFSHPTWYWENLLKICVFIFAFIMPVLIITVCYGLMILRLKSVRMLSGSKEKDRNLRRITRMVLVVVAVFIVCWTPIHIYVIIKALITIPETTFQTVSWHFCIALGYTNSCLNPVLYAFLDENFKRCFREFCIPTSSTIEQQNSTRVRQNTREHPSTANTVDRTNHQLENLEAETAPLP

By Ki is commonly meant a dissociation constant, usually derived from enzyme kinetics or from competition with a known ligand. A low value points to higher affinity. With `CC(C)C[C@H](NC(=O)[C@H](Cc1ccccc1)NC(=O)CNC(=O)CNC(=O)[C@@H](N)Cc1ccc(O)cc1)C(=O)N[C@@H](CCCN=C(N)N)C(=O)N[C@@H](CCCN=C(N)N)C(=O)N[C@H](C)C(=O)N[C@@H](CCCN=C(N)N)C(=O)N1CCC[C@H]1C(=O)N[C@@H](CCCCN)C(N)=O` [[D-Ala8]Dyn A-(1-11)NH2], in assay [1], the affinity corresponds to a Ki of 0.00953 µM.

Regarding `CC(C)C[C@H](NC(=O)[C@@H](Cc1ccccc1)NC(=O)CNC(=O)CNC(=O)[C@@H](N)Cc1ccc(O)cc1)C(=O)N[C@@H](CCCN=C(N)N)C(=O)N[C@@H](CCCN=C(N)N)C(=O)N[C@H](C)C(=O)N[C@@H](CCCN=C(N)N)C(=O)N1CCC[C@H]1C(=O)N[C@@H](CCCCN)C(N)=O` [[D-Phe4, D-Ala8]Dyn A-(1-11)NH2], the Ki in assay [2] is 0.0882 µM; in assay [3], above 10 µM.
